Positions of bridges follow the written chain, without caps; N, C: chain ends. No end group written: not given here.
Tests used:
[1] = system: hTRPA1; assay: TEVC electrophysiology on TRPA1 expressing oocytes; assay type: cell-based, human; settings: 1 µM A967079; 50 µM mustard oil; holding −90 mV; n ≥ 3
Description: (§2) We used Xenopus laevis oocytes as a heterologous expression system in electrophysiological experiments to express ligand-gated and voltage-gated ion channels. […] Plasmids corresponding to each channel or receptor underwent linearization using specific restriction enzymes and subsequent transcription with the T3, T7, or SP6 mMESSAGE mMACHINE transcription kit (Ambion, USA). Depending on the channel type, defolliculated oocytes were injected with 10–50 nL of cRNA at a concentration of 1 ng/nL using a micro-injector (Nanoject II; Drummond Scientific Company, USA). Electrophysiological experiments were conducted following cRNA injection, with an incubation period of 1–5 days at 16 °C in ND96 buffer.
(§3) A two-electrode voltage clamp (TEVC) system utilizing a GeneClamp 500 amplifier (Molecular Devices, Downingtown, PA, USA) was under the control of a pClamp data acquisition system (Axon Instruments, USA), and pClamp Clampex 10.4 software (Axon Instruments®, USA). This setup was employed to measure currents across the cell membrane. The whole-cell currents from the oocytes were recorded at room temperature (18–22 °C). […]
TRPV1 and TRPA1 currents were continuously monitored in a perfusing ND96 solution, following a protocol at −90 mV for 400 s. […]

[2] = system: individuals with atopic dermatitis; settings: topical, phase III, ref [36]; cited from earlier work
Description: The results are consistent with the discoveries presented by Yao et al. (2019) regarding Latoia consocia, a caterpillar indigenous to South-West China. […] Despite substantial investments in the quest for TRPV1 antagonists, yet no antagonist is available on the market. Presently, a ...

[3] = system: hH4R; assay: TEVC on H4R-GIRK1/GIRK2-RGS4 oocytes; assay type: cell-based, human
Description: as §2
A two-electrode voltage clamp (TEVC) system utilizing a GeneClamp 500 amplifier (Molecular Devices, Downingtown, PA, USA) was under the control of a pClamp data acquisition system (Axon Instruments, USA), and pClamp Clampex 10.4 software (Axon Instruments®, USA). This setup was employed to measure currents across the cell membrane. The whole-cell currents from the oocytes were recorded at room temperature (18–22 °C). Two micro-electrodes, comprising voltage and current electrodes, were crafted from borosilicate glass capillaries (1.14 mm outside diameter, 0.7 mm inside diameter), pulled using a microelectrode puller, PUL-1 (World Precision Instruments, USA). […]

[4] = ref [28], cited from earlier work
[5] = target: hTRPV1 (Homo sapiens, UniProt Q8NER1); assay: TEVC electrophysiology on TRPV1 expressing oocytes; assay type: cell-based
Sequence of hTRPV1 (Q8NER1 whole entry): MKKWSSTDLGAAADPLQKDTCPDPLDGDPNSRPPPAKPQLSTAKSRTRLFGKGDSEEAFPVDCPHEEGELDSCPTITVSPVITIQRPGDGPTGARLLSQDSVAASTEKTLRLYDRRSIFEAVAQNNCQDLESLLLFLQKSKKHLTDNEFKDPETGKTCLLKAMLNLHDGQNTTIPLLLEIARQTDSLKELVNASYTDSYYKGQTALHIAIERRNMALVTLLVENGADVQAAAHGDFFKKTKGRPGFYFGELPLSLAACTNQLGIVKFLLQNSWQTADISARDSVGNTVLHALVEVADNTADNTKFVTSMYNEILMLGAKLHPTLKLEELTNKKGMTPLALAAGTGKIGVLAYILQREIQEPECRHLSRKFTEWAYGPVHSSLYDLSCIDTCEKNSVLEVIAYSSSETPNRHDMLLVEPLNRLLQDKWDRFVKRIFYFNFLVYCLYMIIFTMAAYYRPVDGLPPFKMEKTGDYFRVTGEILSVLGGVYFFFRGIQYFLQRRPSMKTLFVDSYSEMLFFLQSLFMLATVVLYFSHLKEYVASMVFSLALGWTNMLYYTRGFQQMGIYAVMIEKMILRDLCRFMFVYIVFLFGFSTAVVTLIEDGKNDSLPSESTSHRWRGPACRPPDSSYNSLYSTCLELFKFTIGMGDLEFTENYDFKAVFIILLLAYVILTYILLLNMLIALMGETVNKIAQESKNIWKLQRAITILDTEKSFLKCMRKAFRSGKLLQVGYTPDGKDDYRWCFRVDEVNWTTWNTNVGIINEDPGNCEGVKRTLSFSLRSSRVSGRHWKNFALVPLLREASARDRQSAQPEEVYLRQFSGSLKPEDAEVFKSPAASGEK
Description: We used Xenopus laevis oocytes as a heterologous expression system in electrophysiological experiments to express ligand-gated and voltage-gated ion channels. Molecular biology techniques (subcloning, transformation, linearization and transcription) were used to make RNA encoding: (1) transient receptor potential channel (hTRPV1 and hTRPA1), (2) histamine receptors (hH1R and hH4R), (3) bradykinin receptor (hB2R), (4) nicotinic acetylcholine receptor (adult muscle type hα1β1δε nAChR and neuronal hα7 nAChR), (5) acid-sensing ion channel (rASIC1a), (6) voltage-gated sodium channels (rNav1.1, rNav1.2, rNav1.3, rNav1.4, mNav1.6 and hNav1.8) and their auxiliary subunits rβ1 and hβ1 and (7) potassium channels (hKv1.1, hKv1.2, hKv1.3, hKv1.4, hKv1.5, hKv1.6, hKv3.1, hKv10.1, mGIRK1, mGIRK2 and mIRK1). Plasmids corresponding to each channel or receptor underwent linearization using specific restriction enzymes and subsequent transcription with the T3, T7, or SP6 mMESSAGE mMACHINE transcription kit (Ambion, USA). Depending on the channel type, defolliculated oocytes were injected with 10–50 nL of cRNA at a concentration of 1 ng/nL using a micro-injector (Nanoject II; Drummond Scientific Company, USA). Electrophysiological experiments were conducted following cRNA injection, with an incubation period of 1–5 days at 16 °C in ND96 buffer.

[6] = system: TRPV1; parameters: method as in earlier work; settings: Latoia consocia; ref [35] Yao et al. (2019); cited from earlier work
[7] = system: hH1R; assay type: cell-based, human
Description: as §2, §3
(§4) The H1R and B2R couples with Gαq/11 proteins, initiating the release of Ca^2+ from the intracellular stores. This rise in intracellular Ca^2+ will activate the Ca^2+-activated Cl^− channels, serving as a sensitive readout.

[8] = system: histamine-N-methyltransferase; settings: ref [47]; cited from earlier work
Description: (§1) Putrescine is a small aliphatic polyamine synthesized by ornithine decarboxylase (ODC) and found in the venom of other animals. Under physiological conditions, putrescine undergoes complete protonation. This property enables putrescine to interact with negatively charged macromolecules, such as DNA, RNA, ATP, phospholipids, or proteins. As a result, it plays a significant role in v ...

[9] = system: TRPV1; settings: HEK293 cells, ref [44] Ahern et al. (2005), cited from earlier work
Description: as §1

[10] = system: rat paw; settings: 10 µmol/paw, subcutaneous injection, ref [46]; cited from earlier work
Description: as §1

[11] = system: hB2R; assay: TEVC on B2R expressing oocytes; assay type: cell-based, human; settings: 1 µM bradykinin; ramp −120 to +70 mV from −20 mV
Description: as §2, §3, §4

Molecule: CCC(=N\O)/C(C)=C/c1ccc(F)cc1 [A967079]
- block of mustard oil effect on TRPA1 [1]: is blocked

Molecule: CCCc1nc(C(F)(F)F)ccc1/C=C/C(=O)N[C@H](C)c1cc(F)c(NS(C)(=O)=O)c(F)c1 [Asivatrep]
- clinical efficacy [2]: encouraging results
- safety profile [2]: a favorable safety profile

Molecule: CN1CCN(C(=O)c2cc3cc(Cl)ccc3[nH]2)CC1 [JNJ 7777120]
- block of histamine effect on H4R [3]: The effect of histamine (blue) was blocked

Molecule: CC(c1cc2ccccc2s1)N(O)C(N)=O (stereo not drawn) [Zileuton]
- suppression of pain and edema induced by secapin-2 ([4]; 5-lipoxygenase blocker, secapin-2 injection): suppress pain and edema responses

Molecule: COc1cc(CNC(=O)CCCC/C=C/C(C)C)ccc1O [capsaicin]
- TRPV1 current by agonist [5]: a current increase

Molecule: Oc1cc2c(cc1O)CN(C(=S)NCCc1ccc(Cl)cc1)CCC2 [capsazepine]
- block of venom extract-induced TRPV1 current increase ([5]; 10 µM capsazepine, 0.4 µg/µL extract + 1 µM capsaicin, holding −90 mV, n ≥ 3): the current increase by whole venom setae extract disappeared
- reduction of caterpillar-induced pain [6]: a notable reduction

Molecule: NCCc1c[nH]cn1 [histamine]
- H1R current by agonist [7]: a current increase

Molecule: COc1ccc2c(c1)c(CC(=O)O)c(C)n2C(=O)c1ccc(Cl)cc1 [indomethacin]
- reduction of secapin-2 edema formation and pain sensation ([4]; nonspecific antagonist of cyclooxygenase): did not show any reducing effects on edema formation and pain sensation

Molecule: NCCCCN [putrescine]
- histamine-N-methyltransferase activity [8]: inhibiting histamine-N-methyltransferase activity
- TRPV1 activity, putrescine alone ([9]; 5 mM putrescine alone): did not induce a detectable TRPV1 activity
- enhancement of capsaicin-evoked TRPV1 current ([9]; 5 mM putrescine with 30 nM capsaicin): remarkably intensified the current evoked by 30 nM capsaicin
- duration of sustained edema [10]: 6 h
- mechanical allodynia [10]: induction of mechanical allodynia

Molecule: DHETDLDDSNVPRIGRHIIDAPKRGCPEGYRKDHQGKCREVL (disulfide 26-38) [TPTX1-Tp1]
- effect on TRPV1, peptide alone ([5]; 1 µM TPTX1-Tp1 (Fig. 4B), no capsaicin, ramp −120 to +70 mV from −20 mV, ND96): does not have an effect on TRPV1 injected oocytes
- TRPV1 current with capsaicin ([5]; TPTX1-Tp1 combined with 0.1 µM capsaicin, ramp −120 to +70 mV from −20 mV, ND96): induces an increase in the current

Molecule: bradykinin
- B2R conductance by agonist [11]: evoked a change of conductance

Reference: publication PMC11335206, “Exploring oak processionary caterpillar induced lepidopterism (part 2): ex vivo bio-assays unmask the role of TRPV1” (Cellular and Molecular Life Sciences: CMLS, 2024)
